Columns and labels:
[1] = target: GDP-bound NRAS wild-type protein (Homo sapiens, UniProt P01111); assay: Binding to NRAS by surface plasmon resonance (SPR), Single Cycle Kinetics; conditions: KD ratio NRAS/KRAS, SPR
[2] = target: GDP-bound HRAS wild-type protein (Homo sapiens, UniProt P01112); assay: Binding to HRAS by surface plasmon resonance (SPR), Single Cycle Kinetics; conditions: KD ratio HRAS/KRAS, SPR
Chain of GDP-bound HRAS wild-type protein (P01112 whole entry): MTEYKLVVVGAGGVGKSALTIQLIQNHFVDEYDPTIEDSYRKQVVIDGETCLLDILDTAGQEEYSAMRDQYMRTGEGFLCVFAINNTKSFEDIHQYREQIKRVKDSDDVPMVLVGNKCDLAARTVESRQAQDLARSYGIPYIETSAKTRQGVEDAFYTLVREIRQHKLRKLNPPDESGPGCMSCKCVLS

Chain of GDP-bound NRAS wild-type protein (P01111 whole entry): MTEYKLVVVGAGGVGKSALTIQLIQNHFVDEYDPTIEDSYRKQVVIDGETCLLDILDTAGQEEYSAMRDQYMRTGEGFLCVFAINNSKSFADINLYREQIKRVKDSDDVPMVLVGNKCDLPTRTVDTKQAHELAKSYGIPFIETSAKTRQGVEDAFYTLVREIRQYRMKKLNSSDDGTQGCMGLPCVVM

| SMILES | NRAS/KRAS (ratio of KD value with respect to GDP-bound NRAS wild-type protein to KD value with respect to KRAS) [1] | HRAS/KRAS (ratio of KD value with respect to GDP-bound HRAS wild-type protein to KD value with respect to KRAS) [2] |
| --- | --- | --- |
| CC[C@H](C)[C@@H]1NC(=O)[C@H](C)N(C)C(=O)C[C@@H](C(=O)N(C)C)N(C)C(=O)[C@H](C2CCCC2)N(C)C(=O)C2(CCC2)NC(=O)[C@@H]2CCCN2C(=O)[C@H](CCc2cc(F)c(C(F)(F)F)c(F)c2)NC(=O)CN(C)C(=O)[C@H](Cc2ccc(C(F)(F)F)cc2)N2CCCC[C@@H](C2=O)N(C)C(=O)CN(C)C1=O [PP0581] | C (A compound having a KD ratio of 0.1 or more and less than 3 is denoted as C) | B (a compound having 3 or more and less than 10 is denoted as B) |
| CC[C@H](C)[C@@H]1NC(=O)[C@H](C)N(C)C(=O)C[C@@H](C(=O)N2CCOCC2)N(C)C(=O)[C@H](C2CCCC2)N(C)C(=O)C2(CCC2)NC(=O)[C@@H]2CC(F)(F)CN2C(=O)[C@H](CCc2cc(F)c(C(F)(F)F)c(F)c2)NC(=O)CN(C)C(=O)[C@H](Cc2ccc(C(F)(F)F)cc2)N2CCCC[C@@H](C2=O)N(C)C(=O)CN(C)C1=O [PP0582] | C (A compound having a KD ratio of 0.1 or more and less than 3 is denoted as C) | B (a compound having 3 or more and less than 10 is denoted as B) |
| CC[C@H](C)[C@@H]1NC(=O)[C@H](C)N(C)C(=O)C[C@@H](C(=O)N(C)C)N(C)C(=O)[C@H](C2CCCC2)N(C)C(=O)C2(CCCC2)NC(=O)[C@@H]2CC(F)(F)CN2C(=O)[C@H](CCc2cc(F)c(C(F)(F)F)c(F)c2)NC(=O)CN(C)C(=O)[C@H](Cc2ccc(C(F)(F)F)cc2)N2CCCC[C@@H](C2=O)N(C)C(=O)CN(C)C1=O [PP0583] | C (A compound having a KD ratio of 0.1 or more and less than 3 is denoted as C) | C (A compound having a KD ratio of 0.1 or more and less than 3 is denoted as C) |
| CC[C@H](C)[C@@H]1NC(=O)[C@H](C)N(C)C(=O)C[C@@H](C(=O)N(C)C)N(C)C(=O)[C@H](C2CCCC2)N(C)C(=O)C2(CCC2)NC(=O)[C@@H]2CC(F)(F)CN2C(=O)[C@H](CCc2cc(F)c(C(F)(F)F)c(F)c2)NC(=O)CN(C)C(=O)[C@H](Cc2ccc(C(F)(F)F)cc2)N2CCCC[C@@H](C2=O)N(C)C(=O)CN(C)C1=O [PP0584] | C (A compound having a KD ratio of 0.1 or more and less than 3 is denoted as C) | C (A compound having a KD ratio of 0.1 or more and less than 3 is denoted as C) |
| CCO[C@@H]1C[C@H]2C(=O)NC3(CCC3)C(=O)N(C)[C@@H](C3CCCC3)C(=O)N(C)[C@H](C(=O)N3CCOCC3)CC(=O)N(C)[C@@H](C)C(=O)N[C@@H]([C@@H](C)CC)C(=O)N(C)CC(=O)N(C)[C@H]3CCCCN(C3=O)[C@@H](Cc3ccc(C(F)(F)F)cc3)C(=O)N(C)CC(=O)N[C@@H](CCc3cc(F)c(C(F)(F)F)c(F)c3)C(=O)N2C1 [PP0585] | B (a compound having 3 or more and less than 10 is denoted as B) | B (a compound having 3 or more and less than 10 is denoted as B) |
| CCO[C@@H]1C[C@H]2C(=O)NC3(CCCC3)C(=O)N(C)[C@@H](C3CCCC3)C(=O)N(C)[C@H](C(=O)N(C)C)CC(=O)N(C)[C@@H](C)C(=O)N[C@@H]([C@@H](C)CC)C(=O)N(C)CC(=O)N(C)[C@H]3CCCCN(C3=O)[C@@H](Cc3ccc(C(F)(F)F)cc3)C(=O)N(C)CC(=O)N[C@@H](CCc3cc(F)c(C(F)(F)F)c(F)c3)C(=O)N2C1 [PP0586] | C (A compound having a KD ratio of 0.1 or more and less than 3 is denoted as C) | B (a compound having 3 or more and less than 10 is denoted as B) |
| CCO[C@@H]1C[C@H]2C(=O)NC3(CCC3)C(=O)N(C)[C@@H](C3CCCC3)C(=O)N(C)[C@H](C(=O)N(C)C)CC(=O)N(C)[C@@H](C)C(=O)N[C@@H]([C@@H](C)CC)C(=O)N(C)CC(=O)N(C)[C@H]3CCCCN(C3=O)[C@@H](Cc3ccc(C(F)(F)F)cc3)C(=O)N(C)CC(=O)N[C@@H](CCc3cc(F)c(C(F)(F)F)c(F)c3)C(=O)N2C1 [PP0587] | C (A compound having a KD ratio of 0.1 or more and less than 3 is denoted as C) | C (A compound having a KD ratio of 0.1 or more and less than 3 is denoted as C) |
| CC[C@H](C)[C@@H]1NC(=O)[C@H](CC(C)C)N(CC)C(=O)C[C@@H](C(=O)N2CCOCC2)N(C)C(=O)[C@H](C2CCCC2)N(C)C(=O)C2(CCCC2)NC(=O)[C@@H]2CCCN2C(=O)[C@H](CCc2cc(F)c(C(F)(F)F)c(F)c2)NC(=O)CN(C)C(=O)[C@H](Cc2ccc(C(F)(F)F)cc2)N2CCCC[C@@H](C2=O)N(C)C(=O)CN(C)C1=O [PP0588] | B (a compound having 3 or more and less than 10 is denoted as B) | B (a compound having 3 or more and less than 10 is denoted as B) |
| CC[C@H](C)[C@@H]1NC(=O)[C@H](CC(C)C)N(C)C(=O)C[C@@H](C(=O)N2CCOCC2)N(C)C(=O)[C@H](C2CCCC2)N(C)C(=O)C2(CCCC2)NC(=O)[C@H](C)N(CC)C(=O)[C@H](CCc2cc(F)c(C(F)(F)F)c(F)c2)NC(=O)CN(C)C(=O)[C@H](Cc2ccc(C(F)(F)F)cc2)N2CCCC[C@@H](C2=O)N(C)C(=O)CN(C)C1=O [PP0589] | B (a compound having 3 or more and less than 10 is denoted as B) | B (a compound having 3 or more and less than 10 is denoted as B) |
| CC[C@H](C)[C@@H]1NC(=O)[C@H](CC(C)C)NC(=O)C[C@@H](C(=O)N2CCOCC2)N(C)C(=O)[C@H](C2CCCC2)N(C)C(=O)C2(CCCC2)NC(=O)[C@@H]2CCCN2C(=O)[C@H](CCc2cc(F)c(C(F)(F)F)c(F)c2)NC(=O)CN(C)C(=O)[C@H](Cc2ccc(C(F)(F)F)cc2)N2CCCC[C@@H](C2=O)N(C)C(=O)CN(C)C1=O [PP0590] | C (A compound having a KD ratio of 0.1 or more and less than 3 is denoted as C) | B (a compound having 3 or more and less than 10 is denoted as B) |
| CC[C@H](C)[C@@H]1NC(=O)[C@@H](CC(C)C)N(C)C(=O)C[C@@H](C(=O)N2CCOCC2)N(C)C(=O)[C@H](C2CCCC2)N(C)C(=O)C2(CCCC2)NC(=O)[C@@H]2CCCN2C(=O)[C@H](CCc2cc(F)c(C(F)(F)F)c(F)c2)NC(=O)CN(C)C(=O)[C@H](Cc2ccc(C(F)(F)F)cc2)N2CCCC[C@@H](C2=O)N(C)C(=O)CN(C)C1=O [PP0591] | B (a compound having 3 or more and less than 10 is denoted as B) | B (a compound having 3 or more and less than 10 is denoted as B) |
| CC[C@H](C)[C@@H]1NC(=O)[C@H](CC(F)(F)F)N(C)C(=O)C[C@@H](C(=O)N2CCOCC2)N(C)C(=O)[C@H](C2CCCC2)N(C)C(=O)C2(CCCC2)NC(=O)[C@@H]2CCCN2C(=O)[C@H](CCc2cc(F)c(C(F)(F)F)c(F)c2)NC(=O)CN(C)C(=O)[C@H](Cc2ccc(C(F)(F)F)cc2)N2CCCC[C@@H](C2=O)N(C)C(=O)CN(C)C1=O [PP0594] | C (A compound having a KD ratio of 0.1 or more and less than 3 is denoted as C) | B (a compound having 3 or more and less than 10 is denoted as B) |
| CC[C@H](C)[C@@H]1NC(=O)[C@@H]2CCCCCN2C(=O)C[C@@H](C(=O)N2CCOCC2)N(C)C(=O)[C@H](C2CCCC2)N(C)C(=O)C2(CCCC2)NC(=O)[C@@H]2CCCN2C(=O)[C@H](CCc2cc(F)c(C(F)(F)F)c(F)c2)NC(=O)CN(C)C(=O)[C@H](Cc2ccc(C(F)(F)F)cc2)N2CCCC[C@@H](C2=O)N(C)C(=O)CN(C)C1=O [PP0595] | C (A compound having a KD ratio of 0.1 or more and less than 3 is denoted as C) | B (a compound having 3 or more and less than 10 is denoted as B) |
| CC(C)C[C@H]1C(=O)N[C@@H](C2CCC2)C(=O)N(C)CC(=O)N(C)[C@H]2CCCCN(C2=O)[C@@H](Cc2ccc(C(F)(F)F)cc2)C(=O)N(C)CC(=O)N[C@@H](CCc2cc(F)c(C(F)(F)F)c(F)c2)C(=O)N2CCC[C@H]2C(=O)NC2(CCCC2)C(=O)N(C)[C@@H](C2CCCC2)C(=O)N(C)[C@H](C(=O)N2CCOCC2)CC(=O)N1C [PP0596] | B (a compound having 3 or more and less than 10 is denoted as B) | B (a compound having 3 or more and less than 10 is denoted as B) |
| CCC(CC)[C@@H]1NC(=O)[C@H](CC(C)C)N(C)C(=O)C[C@@H](C(=O)N2CCOCC2)N(C)C(=O)[C@H](C2CCCC2)N(C)C(=O)C2(CCCC2)NC(=O)[C@@H]2CCCN2C(=O)[C@H](CCc2cc(F)c(C(F)(F)F)c(F)c2)NC(=O)CN(C)C(=O)[C@H](Cc2ccc(C(F)(F)F)cc2)N2CCCC[C@@H](C2=O)N(C)C(=O)CN(C)C1=O [PP0597] | B (a compound having 3 or more and less than 10 is denoted as B) | B (a compound having 3 or more and less than 10 is denoted as B) |
| CC[C@H](C)[C@@H]1NC(=O)[C@H](CC(C)C)N(C)C(=O)C[C@@H](C(=O)N2CCOCC2)N(C)C(=O)[C@H](C2CCCC2)N(C)C(=O)C2(CCCC2)NC(=O)[C@@H]2CCCN2C(=O)[C@H](CCc2ccc(C(F)(F)F)c(Cl)c2)NC(=O)CN(C)C(=O)[C@H](Cc2ccc(F)cc2)N2C/C=C\CC[C@@H](C2=O)N(C)C(=O)CN(C)C1=O [PP0607] | C (A compound having a KD ratio of 0.1 or more and less than 3 is denoted as C) | B (a compound having 3 or more and less than 10 is denoted as B) |
